Laboratory results from patent publication US20050276867A1, “Stabilized compositions comprising a therapeutically active agent and an oxidizing preservative” (ALLERGAN, INC., priority 2004, published 2005).

Legend:
[1] = for Stabilized Chlorine Dioxide Concentration, 0 Days / Stabilized Chlorine Dioxide Concentration, 7 Days / Stabilized Chlorine Dioxide Concentration, 14 Days: ingredient added at ppm shown (100) to brimonidine composition; for Stabilization of chlorine dioxide by the excipient (in words): summary of Table 1
Procedure: Each of the excipients was added, in the amounts shown, to a proprietary composition comprising brimonidine as a therapeutically active agent.

[2] = chlorine dioxide to ClO2-; permanganate to manganese dioxide; cited from earlier work

SMILES: O=C(O)CN(CCN(CC(=O)O)CC(=O)O)CC(=O)O [EDTA]
- Stabilized Chlorine Dioxide Concentration, 0 Days [1]: 44 ppm
- Stabilized Chlorine Dioxide Concentration, 7 Days [1]: 2 ppm
- Stabilized Chlorine Dioxide Concentration, 14 Days [1]: 0 ppm
- Stabilization of chlorine dioxide by the excipient (in words) [1]: do not stabilize the chlorine dioxide

SMILES: NCCN [Ethylene diamine]
- Stabilization of chlorine dioxide by the excipient (in words) [1]: do not stabilize the chlorine dioxide

SMILES: O=C([O-])/C(O)=C(\O)C(=O)[O-].[Na+].[Na+] [Sodium Dihydroxyfurmarate]
- Stabilized Chlorine Dioxide Concentration, 0 Days [1]: 37 ppm
- Stabilized Chlorine Dioxide Concentration, 7 Days [1]: 13 ppm
- Stabilized Chlorine Dioxide Concentration, 14 Days [1]: 0 ppm

SMILES: O=C[O-].[Na+] [Sodium Formate]
- Stabilized Chlorine Dioxide Concentration, 0 Days [1]: 42 ppm
- Stabilized Chlorine Dioxide Concentration, 7 Days [1]: 40 ppm
- Stabilized Chlorine Dioxide Concentration, 14 Days [1]: 36 ppm

SMILES: CC(O)C(=O)[O-].[Na+] (centres unmarked) [Sodium Lactate]
- Stabilized Chlorine Dioxide Concentration, 0 Days [1]: 45 ppm
- Stabilized Chlorine Dioxide Concentration, 7 Days [1]: 40 ppm
- Stabilized Chlorine Dioxide Concentration, 14 Days [1]: 37 ppm

SMILES: O=C([O-])C(=O)[O-].[Na+].[Na+] [Sodium Oxalate]
- Stabilized Chlorine Dioxide Concentration, 0 Days [1]: 39 ppm
- Stabilized Chlorine Dioxide Concentration, 7 Days [1]: 38 ppm
- Stabilized Chlorine Dioxide Concentration, 14 Days [1]: 35 ppm
- Stabilization of chlorine dioxide by the excipient (in words) [1]: ineffective

SMILES: CC(=O)C(=O)[O-].[Na+] [Sodium Pyruvate]
- Stabilization of chlorine dioxide by the excipient (in words) [1]: ineffective

SMILES: [O][Cl+][O-] [chlorine dioxide]
- Standard reduction potential [2]: 1.07 V
